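Compound exposure: 48 hours, 5 concentrations, 96-well plates. Abbreviation: GI50, concentration required for 50% inhibition of growth.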 The source made the active and inactive calls. No stated cut-off is given here; in the data, active = GI50 up to about 1.1 µM and inactive = higher.
Legend:
Assay in all cases: NCI-60 cell line screen, 48 h
[1] = system: SF-268
[2] = system: A498
[3] = system: UO-31
[4] = system: K562
[5] = system: OVCAR-3
[6] = system: SR
[7] = system: SN12C
[8] = system: SK-MEL-28
[9] = system: ACHN
[10] = system: NCI-H23
[11] = system: CCRF-CEM
[12] = system: IGROV-1
[13] = system: RPMI-8226
[14] = system: CAKI-1
[15] = system: HCT-116
[16] = system: NCI-H522

Measured: GI50

Cc1cc2c(cc1Br)C1(C)CCC(C)C1(C)O2 (configuration not stated)
inactive: [1] 34 µM | [2] 34.6 µM | [3] 32.4 µM | [4] 17.3 µM | [5] 21.7 µM | [6] 13 µM | [7] 24.9 µM | [8] 38.4 µM | [9] 31.2 µM | [10] 25.5 µM | [11] 22.1 µM | [12] 47.6 µM | [13] 14 µM | [14] 56 µM | [15] 14 µM

COc1c2nc(CCl)[nH]c(=O)c2c(OC)c2nc(CCl)[nH]c(=O)c12
inactive: [1] > 100 µM | [3] > 100 µM | [4] > 100 µM | [5] > 100 µM | [7] > 100 µM | [8] > 100 µM | [9] > 100 µM | [10] > 100 µM | [16] > 100 µM | [11] > 100 µM | [12] > 100 µM | [13] > 100 µM | [14] > 100 µM | [15] > 100 µM

COc1cc2c(cc1OC)-c1cc3cc(OC)c(OC)cc3n1CC2
inactive: [1] 81.5 µM | [2] 14.4 µM | [3] > 100 µM | [4] 26.3 µM | [5] > 100 µM | [6] > 100 µM | [7] > 100 µM | [8] 34 µM | [9] 31.6 µM | [10] 81.1 µM | [16] 32.5 µM | [11] > 100 µM | [12] 90.8 µM | [13] 71.8 µM | [14] 55.7 µM | [15] 32.4 µM

CCCCCCC(=O)C/C(CCC(=O)N(Cc1ccccc1)Cc1ccccc1)=N\Nc1ccc([N+](=O)[O-])cc1[N+](=O)[O-]
inactive: [1] 39.1 µM | [2] 62.8 µM | [3] 51.6 µM | [4] 20.3 µM | [5] 35.4 µM | [6] > 10 µM | [7] 56.1 µM | [8] 99.3 µM | [9] 27.3 µM | [10] 38.7 µM | [16] 23.7 µM | [11] 17.3 µM | [12] > 100 µM | [13] 31.9 µM | [14] > 100 µM | [15] 35.1 µM

COc1ccc2c3c(coc13)C(CCC(=O)O)CC2 (configuration not stated)
inactive: [2] > 100 µM | [5] > 100 µM | [7] > 100 µM | [8] > 100 µM | [9] > 100 µM | [10] > 100 µM | [12] > 100 µM | [14] 38.7 µM | [15] > 100 µM

CNC(=O)CN(CC(=O)NC)C(=O)NC
inactive: [1] > 100 µM | [2] > 100 µM | [3] > 100 µM | [4] > 100 µM | [5] > 100 µM | [6] > 100 µM | [8] > 100 µM | [9] > 100 µM | [10] > 100 µM | [16] > 100 µM | [11] > 100 µM | [12] > 100 µM | [13] > 100 µM | [14] > 100 µM

COC(=O)c1cc(O)ccc1NC(=O)c1ccc(O)cc1
inactive: [1] > 100 µM | [3] > 100 µM | [4] > 100 µM | [5] > 100 µM | [6] > 100 µM | [8] > 100 µM | [9] > 100 µM | [10] > 100 µM | [16] 41.4 µM | [11] > 100 µM | [12] > 100 µM | [13] > 100 µM | [14] 79.4 µM | [15] > 100 µM

COC(=O)N1CCc2c(nc(N(C)CCO)[nH]c2=O)C1
inactive: [1] > 100 µM | [2] > 100 µM | [3] > 100 µM | [4] > 100 µM | [5] > 100 µM | [6] > 100 µM | [7] > 100 µM | [8] > 100 µM | [9] > 100 µM | [10] > 100 µM | [16] > 100 µM | [11] > 100 µM | [12] > 100 µM | [13] > 100 µM | [14] > 100 µM | [15] > 100 µM

CN/N=C(\C)C(CN1CCCCC1)C(C1=C(O)c2ccccc2OC1)c1ccccc1 (configuration not stated)
inactive: [1] > 100 µM | [2] > 10 µM | [3] 50.4 µM | [4] > 100 µM | [5] > 100 µM | [6] 51.3 µM | [7] > 100 µM | [8] > 100 µM | [9] > 100 µM | [10] > 100 µM | [16] > 100 µM | [11] 69.2 µM | [12] 78.3 µM | [13] 44.3 µM | [14] > 100 µM | [15] > 100 µM

O=C1c2ccoc2C(=O)c2oc(=O)ccc21
inactive: [1] 9.14 µM | [2] > 59.3 µM | [3] 7.43 µM | [4] 6.46 µM | [5] 3.36 µM | [6] 1.43 µM | [7] 11.1 µM | [8] 5.43 µM | [9] 2.86 µM | [10] 2 µM | [16] 1.86 µM | [11] 5.57 µM | [12] 19.6 µM | [13] 3.67 µM | [14] > 45 µM | [15] 5.31 µM

CCC12C=CCN3CC[C@]4(C(=C(C(=O)OC)[C@@H]1Nc1ccn(C5OC(COC(C)=O)C(OC(C)=O)C5OC(C)=O)c(=O)n1)Nc1ccccc14)C32 (some centres not stated)
inactive: [1] 5.55 µM | [2] 5.19 µM | [3] 4.23 µM | [4] 5.08 µM | [5] 4.37 µM | [6] 3.94 µM | [7] 4.39 µM | [8] 4.55 µM | [9] 4.43 µM | [10] 1.62 µM | [16] 3.84 µM | [11] 4.59 µM | [12] 5.25 µM | [13] 5.46 µM | [14] 5.37 µM | [15] 4 µM

CC(C)(Oc1ccc(/C=C/C(=O)c2ccc(Cl)cc2)cc1)C(=O)Nc1c(Cl)cccc1Cl
inactive: [1] 28.5 µM | [2] 17.1 µM | [3] 24.4 µM | [4] > 100 µM | [5] 19.5 µM | [6] > 100 µM | [7] 15 µM | [8] 16.1 µM | [9] 20.9 µM | [10] 17.3 µM | [12] 26.9 µM | [14] 23.7 µM | [15] 6.03 µM

CC(C)OP(=O)(NC(=S)c1ccccc1)OC(C)C
inactive: [1] > 100 µM | [2] 43 µM | [3] > 100 µM | [4] > 100 µM | [5] > 100 µM | [7] 95.1 µM | [8] > 100 µM | [9] > 100 µM | [10] > 100 µM | [11] 74.5 µM | [12] > 100 µM | [14] > 100 µM | [15] > 100 µM

N#Cc1c(-c2ccco2)cc(-c2ccccc2)nc1O
inactive: [1] > 100 µM | [2] > 100 µM | [3] > 100 µM | [4] > 100 µM | [5] > 100 µM | [6] > 100 µM | [7] > 100 µM | [8] > 100 µM | [9] > 100 µM | [10] > 100 µM | [16] > 100 µM | [11] > 100 µM | [12] > 100 µM | [13] > 100 µM | [15] > 100 µM

CC1(C)c2ccccc2N2O[C@@H]3C(=O)N(c4ccccc4)C(=O)[C@@H]3C21c1ccccc1 (some centres not stated)
inactive: [1] > 100 µM | [3] > 100 µM | [4] 56.4 µM | [5] > 100 µM | [7] > 100 µM | [8] > 100 µM | [10] > 100 µM | [16] 41.1 µM | [11] 52.8 µM | [12] > 100 µM | [13] 57.7 µM | [14] > 100 µM

CCOC1c2nc3ccccc3nc2-c2ccccc2N1C(C)=O (configuration not stated)
inactive: [2] > 100 µM | [3] > 100 µM | [4] 83 µM | [5] > 100 µM | [6] > 100 µM | [7] > 100 µM | [8] > 100 µM | [9] > 100 µM | [10] > 100 µM | [11] > 100 µM | [12] > 100 µM | [13] > 100 µM | [14] > 100 µM | [15] > 100 µM

CC(C)c1cccc(C(C)C)c1NC(=S)NN=C1C=C(C(C)(C)C)C(=O)C(C(C)(C)C)=C1
inactive: [1] 34.3 µM | [2] 17.9 µM | [3] 29.6 µM | [4] 23.3 µM | [5] 22.5 µM | [6] 35.3 µM | [7] 22.2 µM | [8] 34.4 µM | [9] 34.4 µM | [10] 16.9 µM | [11] 22.7 µM | [12] 26 µM | [13] 27.2 µM | [15] 3.59 µM

CC1CCP(=O)(c2ccccc2)c2ccccc21 (configuration not stated)
inactive: [2] > 100 µM | [3] > 100 µM | [4] 25.1 µM | [5] 76.2 µM | [6] 32.4 µM | [7] 26.2 µM | [8] > 100 µM | [9] 42.5 µM | [10] > 100 µM | [16] 43.6 µM | [11] 37.7 µM | [12] > 100 µM | [13] 64.3 µM | [15] 23 µM

CCC(=O)C1=C(OC(C)=O)C2Cc3c(n(C)c4ccccc34)C(C1)N2C (configuration not stated)
inactive: [1] 19 µM | [2] 42.9 µM | [3] 36.1 µM | [4] 33.3 µM | [5] 22.9 µM | [6] 36.1 µM | [7] 25.3 µM | [8] 71.8 µM | [9] 27.3 µM | [10] 68.9 µM | [16] 15.3 µM | [11] 27 µM | [12] 29.9 µM | [14] 33.7 µM | [15] 29.9 µM
